Laboratory results reported in ChEMBL document CHEMBL4602676, “Discovery and Development of 3-(6-Chloropyridine-3-yloxymethyl)-2-azabicyclo[3.1.0]hexane Hydrochloride (SUVN-911): A Novel, Potent, Selective, and Orally Active Neuronal Nicotinic Acetylcholine α4β2 Receptor Antagonist for the Treatment of Depression” (J Med Chem, 2020).

Tests used:
[1] = Genotoxicity in Salmonella typhimurium TA1537 in presence of metabolic activation; format: toxicity; conditions: salmonella enterica subsp. enterica serovar typhimurium
[2] = Oral bioavailability in Beagle dog at 3 mg/kg by LC-MS/MS analysis; format: ADME, organism-based, Canis lupus familiaris; conditions: in vivo
[3] = Protein binding in dog plasma assessed as unbound fraction at […] incubated for 6 hrs by LC-MS/MS analysis; format: ADME, cell-free, Canis lupus familiaris
[4] = Protein binding in human plasma assessed as unbound fraction at […] incubated for 6 hrs by LC-MS/MS analysis; format: ADME, cell-free
[5] = target: T1, Solute carrier organic anion transporter family member 1B1 (Homo sapiens, UniProt Q9Y6L6); test: Inhibition of OATP1B1 (unknown origin)
T1 sequence (Q9Y6L6 whole entry): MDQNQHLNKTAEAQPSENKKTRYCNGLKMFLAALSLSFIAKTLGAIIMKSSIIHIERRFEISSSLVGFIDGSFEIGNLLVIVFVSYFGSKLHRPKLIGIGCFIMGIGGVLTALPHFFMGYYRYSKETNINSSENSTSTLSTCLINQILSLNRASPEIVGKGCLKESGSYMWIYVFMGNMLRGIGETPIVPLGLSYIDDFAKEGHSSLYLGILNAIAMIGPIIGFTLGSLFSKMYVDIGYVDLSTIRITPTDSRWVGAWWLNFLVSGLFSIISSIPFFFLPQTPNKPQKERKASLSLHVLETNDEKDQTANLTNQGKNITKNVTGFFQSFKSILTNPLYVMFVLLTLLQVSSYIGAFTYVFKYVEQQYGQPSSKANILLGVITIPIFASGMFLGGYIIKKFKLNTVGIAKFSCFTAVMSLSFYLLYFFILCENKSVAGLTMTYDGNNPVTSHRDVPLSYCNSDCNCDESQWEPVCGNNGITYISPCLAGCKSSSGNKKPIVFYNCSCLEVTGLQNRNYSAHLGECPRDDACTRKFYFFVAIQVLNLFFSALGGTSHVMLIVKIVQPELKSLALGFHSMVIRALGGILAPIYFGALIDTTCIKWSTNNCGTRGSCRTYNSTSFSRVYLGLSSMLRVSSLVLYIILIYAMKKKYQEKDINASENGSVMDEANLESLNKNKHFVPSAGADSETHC

[6] = Half life in Wistar rat at 10 ml/kg, po or 2 ml/kg, iv measured upto 24 hrs by LC-MS/MS analysis; format: ADME, organism-based; conditions: in vivo
[7] = Toxicity in telemetered Beagle dog assessed as change in blood pressure up to 25 mg/kg, po; format: organism-based, Canis lupus familiaris; conditions: in vivo
[8] = Cmax in Wistar rat at 10 ml/kg, po or 2 ml/kg, iv measured upto 24 hrs by LC-MS/MS analysis; format: ADME, organism-based; conditions: in vivo
[9] = target: T2, Solute carrier organic anion transporter family member 1B3 (Homo sapiens, UniProt Q9NPD5); test: Inhibition of OATP1B3 (unknown origin)
T2 sequence (Q9NPD5 whole entry): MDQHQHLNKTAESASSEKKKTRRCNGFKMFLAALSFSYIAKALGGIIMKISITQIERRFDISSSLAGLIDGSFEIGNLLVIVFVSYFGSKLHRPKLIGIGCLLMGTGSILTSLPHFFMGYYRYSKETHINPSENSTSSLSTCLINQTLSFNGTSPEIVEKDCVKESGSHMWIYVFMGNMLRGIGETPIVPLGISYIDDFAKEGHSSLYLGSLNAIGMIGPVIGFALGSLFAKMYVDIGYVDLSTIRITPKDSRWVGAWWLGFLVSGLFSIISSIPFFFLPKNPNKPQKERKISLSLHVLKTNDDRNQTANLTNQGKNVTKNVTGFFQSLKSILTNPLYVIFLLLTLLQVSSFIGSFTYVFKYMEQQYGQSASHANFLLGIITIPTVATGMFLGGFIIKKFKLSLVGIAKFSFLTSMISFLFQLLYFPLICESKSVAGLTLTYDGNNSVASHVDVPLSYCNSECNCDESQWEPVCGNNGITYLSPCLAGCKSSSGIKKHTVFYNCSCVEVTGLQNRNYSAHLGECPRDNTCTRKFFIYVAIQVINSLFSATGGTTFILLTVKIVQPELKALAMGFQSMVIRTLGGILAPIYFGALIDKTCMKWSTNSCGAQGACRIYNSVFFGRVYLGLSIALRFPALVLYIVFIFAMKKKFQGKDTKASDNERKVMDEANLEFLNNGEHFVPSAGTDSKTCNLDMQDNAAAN

[10] = target: Voltage-gated inwardly rectifying potassium channel KCNH2 (Homo sapiens, UniProt Q12809); test: Inhibition of recombinant human ERG expressed in HEK293 at -80 mV holding potential by whole-cell patch clamp method; format: cell-based
Cytochrome P450 1A2 = target: T3, Cytochrome P450 1A2 (Homo sapiens, UniProt P05177); test: Induction of CYP1A2 (unknown origin); format: ADME
T3 sequence (P05177 whole entry): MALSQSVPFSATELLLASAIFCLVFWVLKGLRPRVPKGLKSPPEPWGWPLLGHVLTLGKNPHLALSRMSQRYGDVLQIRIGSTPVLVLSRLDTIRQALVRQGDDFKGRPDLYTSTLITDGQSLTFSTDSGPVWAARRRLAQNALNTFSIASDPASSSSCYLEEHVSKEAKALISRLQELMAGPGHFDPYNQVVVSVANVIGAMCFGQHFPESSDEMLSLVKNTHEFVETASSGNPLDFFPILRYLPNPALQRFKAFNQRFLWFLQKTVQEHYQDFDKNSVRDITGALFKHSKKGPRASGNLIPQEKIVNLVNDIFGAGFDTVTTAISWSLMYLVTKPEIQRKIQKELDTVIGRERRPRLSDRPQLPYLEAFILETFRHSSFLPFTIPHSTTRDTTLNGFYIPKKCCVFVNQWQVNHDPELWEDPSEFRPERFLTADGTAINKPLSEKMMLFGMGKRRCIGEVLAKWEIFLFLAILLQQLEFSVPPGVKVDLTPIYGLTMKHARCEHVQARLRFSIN

[11] = Oral bioavailability in Wistar rat at 10 ml/kg measured upto 24 hrs by LC-MS/MS analysis; format: ADME, organism-based; conditions: in vivo

Sequence of Voltage-gated inwardly rectifying potassium channel KCNH2 (Q12809 whole entry): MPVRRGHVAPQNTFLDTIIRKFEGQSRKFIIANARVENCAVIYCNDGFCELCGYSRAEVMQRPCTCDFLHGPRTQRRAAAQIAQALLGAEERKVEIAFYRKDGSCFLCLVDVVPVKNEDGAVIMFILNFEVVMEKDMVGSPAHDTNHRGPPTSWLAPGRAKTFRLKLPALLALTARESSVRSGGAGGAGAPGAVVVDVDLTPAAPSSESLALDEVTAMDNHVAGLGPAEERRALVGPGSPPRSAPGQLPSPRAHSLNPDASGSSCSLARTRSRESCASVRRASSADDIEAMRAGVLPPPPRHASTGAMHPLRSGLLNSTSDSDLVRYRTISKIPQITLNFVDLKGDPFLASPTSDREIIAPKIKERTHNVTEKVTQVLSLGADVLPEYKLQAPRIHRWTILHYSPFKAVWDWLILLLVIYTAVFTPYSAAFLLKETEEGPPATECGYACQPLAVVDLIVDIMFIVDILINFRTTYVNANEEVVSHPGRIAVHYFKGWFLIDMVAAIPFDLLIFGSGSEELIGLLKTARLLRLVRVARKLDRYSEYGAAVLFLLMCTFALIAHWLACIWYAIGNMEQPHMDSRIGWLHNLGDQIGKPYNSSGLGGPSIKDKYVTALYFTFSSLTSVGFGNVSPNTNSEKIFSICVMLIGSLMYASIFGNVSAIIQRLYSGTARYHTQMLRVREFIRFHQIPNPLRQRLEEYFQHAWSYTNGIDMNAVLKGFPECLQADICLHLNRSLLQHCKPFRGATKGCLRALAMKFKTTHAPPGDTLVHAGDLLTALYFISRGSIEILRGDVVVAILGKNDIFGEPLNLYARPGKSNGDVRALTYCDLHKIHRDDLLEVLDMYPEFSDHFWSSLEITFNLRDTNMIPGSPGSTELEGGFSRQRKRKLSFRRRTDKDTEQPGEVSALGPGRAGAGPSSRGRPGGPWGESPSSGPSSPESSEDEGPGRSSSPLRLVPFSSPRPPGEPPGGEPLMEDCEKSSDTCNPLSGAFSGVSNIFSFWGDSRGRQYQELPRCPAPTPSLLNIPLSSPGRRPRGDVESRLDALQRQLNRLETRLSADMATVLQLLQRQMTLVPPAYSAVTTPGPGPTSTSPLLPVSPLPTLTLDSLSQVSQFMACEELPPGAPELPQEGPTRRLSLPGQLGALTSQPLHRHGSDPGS

In the case of `Cl.Clc1ccc(OC[C@@H]2C[C@H]3C[C@H]3N2)cn1`, the Activity [1] is reported as “Non-Toxic”, the bioavailability [2] is reported as 83% and the fraction unbound at 6 h [3] is reported as 0.31. The fraction unbound at 6 h [4] was 0.21, the “inhibition (INH)” value [5] was “Not Active” and the half-life [6] was 3.34 h. The Activity [7] was “Non-Toxic”, the Cmax [8] was 1910 ng/mL and the “inhibition (INH)” value [9] was “Not Active”. For the same compound, the IC50 [10] was > 10 µM, the Activity (Cytochrome P450 1A2) was “Not Active” and the bioavailability [11] was 66%.
